# Reference: patent US7381572B2, “Reagents and procedures for multi-label high-specificity labeling” (Rutgers, The State University of New Jersey, priority 2004, dated 2008)
# Like-named read-outs stand apart in the source and are kept apart here. No end group written: not given here.
# Tests used:
# tetracysteine peptide = settings: initially non-fluorescent; Griffin, et al. Science (1998); cited from earlier work
# [1] = Multicolor, multisite labeling, pairs of peptides: FlAsH detection; format: binding; settings: pair of G1^0 with the named peptide; both probes present; 5, 10, 20 mM DTT
# Protocol: (§1) Multicolor, multisite labeling was assessed in electrophoretic-mobility-shift assays. Pairs of tetracysteine-tagged peptides—one neutral tetracysteine-tagged peptide, and one negatively-charged tetracysteine-tagged peptide (the charge difference resulting in different electrophoretic mobilities on the gel, thus allowing the two tetracysteine-tagged peptides to be distinguished)—were analyzed. For each combination of probe and pair of tetracysteine-tagged peptides, three reactions were performed in parallel: one reaction at 5 mM DTT, one reaction at 10 mM DTT, and one reaction at 20 mM DTT. […] DTT (1 μl of 50 mM DTT for reactions at 5 mM DTT, 1 μl of 100 mM DTT for reactions at 10 mM DTT, and 1 μl of 200 mM DTT for reactions at 20 mM DTT) was added, and samples were incubated 30 min at 25° C.
# [2] = Multicolor, multisite labeling, pairs of peptides: Cy5 detection; format: binding; settings: pair of G1^0 with P3, P4, P5 or P6; both probes present; 5, 10, 20 mM DTT
# Protocol: as §1
# [3] = format: binding; settings: excitation 488 nm, emission ≧680 nm
# [4] = Tag-conjugate interaction found by the inventors: Cy3 derivatives; format: binding
# [5] = Tag-conjugate interaction found by the inventors: Cy5 derivatives; format: binding
# [6] = Tag-conjugate binding found by the inventors: Cy3 and Cy5 bis-propionamido-phenylarsine derivatives
# [7] = Tag-conjugate interaction found by the inventors: FlAsH-EDT2; format: binding
# [8] = Multicolor, multisite labeling of doubly-tetracysteine-tagged proteins (SARPs), crude lysate; format: binding, Escherichia coli; settings: for FlAsH-Cy5 FRET within the resulting complex (SARP detection): excitation 488 nm, emission ≧680 nm; for co-labeling by FlAsH and Cy5-(SO3)2-(PAEDT)2: ~1 μM doubly-tagged protein
# Protocol: Multicolor, multisite labeling of doubly-tetracysteine-tagged proteins—yielding self-assembled relay probes, SARPs—was assessed in electrophoretic-mobility-shift assays. DTT (1 μl of 125 mM solution) was added to 23 μl crude lysate containing doubly-tetracysteine-tagged protein (˜1 μM; Example 14.2), and samples were incubated 30 min at 25° C. Cy5-(SO3)2-(PAEDT)2 (Example 9.2; 0.5 μl of 1 mM solution in DMF) was added, and samples were incubated 20 min at 25° C. FlAsH (Griffin, et al. (2000) Methods Enzmol. 327, 565-578; 0.5 μl of 0.1 mM solution in DMF) was then added, and samples were further incubated 5 min at 25° C.
compound,measurement,setting,value
"O=C(O)c1ccccc1-c1c2ccc(=O)c([As]3SCCS3)c-2oc2c([As]3SCCS3)c(O)ccc12 [FlAsH-EDT2, 4′,5′-bis (1,3,2-dithioarsolan-2-yl)fluorescein]",fluorescence on addition of a tetracysteine peptide to displace the EDT,tetracysteine peptide,develops bright fluorescence
Ac-EWNCCPPPCCN—CONH2 (Ac-EWNCCPPPCCN-NH2; cysteine pairing not given here) [P3],FlAsH labeling as % of the level of labeling of G1^0,[1],< 10%
same,labeling by Cy5-(SO3)2-(PAEDT)2 in a pair of peptides,[2],labeled
Ac-EWNCCPPPPCCN-AEAAAKEAAAKEAAAKEAAAKA-NCCGCCN—CONH2 [SARP-P4/G1-HL4X],FlAsH-Cy5 FRET within the resulting complex (SARP detection),[3],participated in FlAsH-Cy5 FRET
Ac-EWNCCPPPPCCN—CONH2 (Ac-EWNCCPPPPCCN-NH2; cysteine pairing not given here) [P4],FlAsH labeling as % of the level of labeling of G1^0,[1],< 10%
same,labeling by Cy5-(SO3)2-(PAEDT)2 in a pair of peptides,[2],labeled
Ac-EWNCCPPPPCCN—PPPPPPPPPPPP—NCCGCCN—CONH2 [SARP-P4/G1-PP12],FlAsH-Cy5 FRET within the resulting complex (SARP detection),[3],participated in FlAsH-Cy5 FRET
Ac-EWNCCPPPPCCN—PPPPPPPPP—NCCGCCN—CONH2 [SARP-P4/G1-PP9],FlAsH-Cy5 FRET within the resulting complex (SARP detection),[3],participated in FlAsH-Cy5 FRET
Ac-EWNCCPPPPPCCN—CONH2 (Ac-EWNCCPPPPPCCN-NH2; cysteine pairing not given here) [P5],FlAsH labeling as % of the level of labeling of G1^0,[1],< 10%
same,labeling by Cy5-(SO3)2-(PAEDT)2 in a pair of peptides,[2],labeled
Ac-EWNCCPPPPPPCCN—CONH2 (Ac-EWNCCPPPPPPCCN-NH2; cysteine pairing not given here) [P6],FlAsH labeling as % of the level of labeling of G1^0,[1],< 10%
same,labeling by Cy5-(SO3)2-(PAEDT)2 in a pair of peptides,[2],labeled
CCGPCC: tetracysteine peptide tag of the general form CCXXCC (target sequence),interaction of tag with Cy3 derivatives of conjugates according to Formula (I),[4],interact tightly
same,interaction of tag with Cy5 derivatives of conjugates according to Formula (I),[5],"not interact, or interact less tightly"
CCPGPCC,binding of tag to Cy3 and Cy5 (bis-sulfonato) bis-propionamido-phenylarsine derivatives,[6],bind
same,interaction of tag with FlAsH-EDT2,[7],not interact substantially
CCPPPCC (target sequence) [tetracysteine peptide tag of the form CC(P)nCC],binding of tag to Cy3 and Cy5 (bis-sulfonato) bis-propionamido-phenylarsine derivatives,[6],bind
same,interaction of tag with FlAsH-EDT2,[7],not interact substantially
CCPPPPCC (target sequence) [tetracysteine peptide tag of the form CC(P)nCC],binding of tag to Cy3 and Cy5 (bis-sulfonato) bis-propionamido-phenylarsine derivatives,[6],bind
same,interaction of tag with FlAsH-EDT2,[7],not interact substantially
CCPPPPPCC (target sequence) [tetracysteine peptide tag of the form CC(P)nCC],binding of tag to Cy3 and Cy5 (bis-sulfonato) bis-propionamido-phenylarsine derivatives,[6],bind
same,interaction of tag with FlAsH-EDT2,[7],not interact substantially
CCPPPPPPCC (target sequence) [tetracysteine peptide tag of the form CC(P)nCC],binding of tag to Cy3 and Cy5 (bis-sulfonato) bis-propionamido-phenylarsine derivatives,[6],bind
same,interaction of tag with FlAsH-EDT2,[7],not interact substantially
"CGCGCGC (not fully specified (N-terminus, C-terminus); cysteine pairing not given here) [Ac—WNCGCGCGCN—CONH2, tag CGCGCGC; tested as the set A peptide that holds it]",binding of tag to Cy5 bis-sulfonato bis-propionamido-phenylarsine or Cy5 bis-propionamido-phenylarsine,[5],bind
same,interaction of tag with FlAsH-EDT2,[7],do not interact substantially
CGPCCGPC [Ac—WNCGPCCGPCN—CONH2],binding of tag to Cy5 bis-sulfonato bis-propionamido-phenylarsine or Cy5 bis-propionamido-phenylarsine,[5],bind
same,interaction of tag with FlAsH-EDT2,[7],do not interact substantially
α-CCPPPCC—PPPPPPPPP—CCGCCN [α-SARP-P3/G1-PP9],specificity of co-labeling and FRET-dependent detection (other proteins labeled),[8],no other protein in the crude lysate was detectably labeled
same,FlAsH-Cy5 FRET within the resulting complex (SARP detection),[8],participated in FlAsH-Cy5 FRET
same,co-labeling by FlAsH and Cy5-(SO3)2-(PAEDT)2,[8],co-labeled
α-CCPPPPCC—PPPPPPPPP—CCGCCN [α-SARP-P4/G1-PP9],specificity of co-labeling and FRET-dependent detection (other proteins labeled),[8],no other protein in the crude lysate was detectably labeled
same,FlAsH-Cy5 FRET within the resulting complex (SARP detection),[8],participated in FlAsH-Cy5 FRET
same,co-labeling by FlAsH and Cy5-(SO3)2-(PAEDT)2,[8],co-labeled
